Source: PubChem BioAssay AID1259407 (Chemical Carcinogenesis Research Information System (CCRIS), 2018)
Activity calls are given as the source filed them. The rule behind the calls is not given here.

Tested on: CCRIS mutagenicity, Ames/micronucleus/aberration tests
Assay: CCRIS mutagenicity studies
[1] = Test System: AMES SALMONELLA TYPHIMURIUM, Strain/Indicator: TA98, Metabolic Activation: NONE, Method: PREINCUBATION
[2] = Test System: AMES SALMONELLA TYPHIMURIUM, Strain/Indicator: TA100, Metabolic Activation: NONE, Method: PREINCUBATION
[3] = Test System: AMES SALMONELLA TYPHIMURIUM, Strain/Indicator: TA1535, Metabolic Activation: NONE, Method: PREINCUBATION
[4] = Test System: AMES SALMONELLA TYPHIMURIUM, Strain/Indicator: TA98, Metabolic Activation: NONE, Method: STANDARD PLATE
[5] = Test System: AMES SALMONELLA TYPHIMURIUM, Strain/Indicator: TA100, Metabolic Activation: NONE, Method: STANDARD PLATE

Structure (SMILES): OCCCCl
- mutagenic call (Test System: AMES SALMONELLA TYPHIMURIUM, Strain/Indicator: TA97, Metabolic Activation: HAMSTER, LIVER, S-9, AROCLOR 1254 (10%), Method: PREINCUBATION): inactive; negative
- mutagenic call (Test System: AMES SALMONELLA TYPHIMURIUM, Strain/Indicator: TA97, Metabolic Activation: NONE, Method: PREINCUBATION): inactive; negative
- mutagenic call (Test System: AMES SALMONELLA TYPHIMURIUM, Strain/Indicator: TA97, Metabolic Activation: RAT, LIVER, S-9, AROCLOR 1254 (10%), Method: PREINCUBATION): inactive; negative
- mutagenic call (Test System: AMES SALMONELLA TYPHIMURIUM, Strain/Indicator: TA98, Metabolic Activation: HAMSTER, LIVER, S-9, AROCLOR 1254 (10%), Method: PREINCUBATION): inactive; negative
- mutagenic call [1]: inactive; negative
- mutagenic call (Test System: AMES SALMONELLA TYPHIMURIUM, Strain/Indicator: TA98, Metabolic Activation: RAT, LIVER, S-9, AROCLOR 1254 (10%), Method: PREINCUBATION): inactive; negative
- mutagenic call (Test System: AMES SALMONELLA TYPHIMURIUM, Strain/Indicator: TA100, Metabolic Activation: HAMSTER, LIVER, S-9, AROCLOR 1254 (10%), Method: PREINCUBATION): inactive; negative
- mutagenic call [2]: inactive; negative
- mutagenic call (Test System: AMES SALMONELLA TYPHIMURIUM, Strain/Indicator: TA100, Metabolic Activation: RAT, LIVER, S-9, AROCLOR 1254 (10%), Method: PREINCUBATION): inactive; negative
- mutagenic call (Test System: AMES SALMONELLA TYPHIMURIUM, Strain/Indicator: TA1535, Metabolic Activation: HAMSTER, LIVER, S-9, AROCLOR 1254 (10%), Method: PREINCUBATION): active; positive
- mutagenic call [3]: inactive; negative
- mutagenic call (Test System: AMES SALMONELLA TYPHIMURIUM, Strain/Indicator: TA1535, Metabolic Activation: RAT, LIVER, S-9, AROCLOR 1254 (10%), Method: PREINCUBATION): active; positive

Structure (SMILES): CC12OOC1Oc1ccccc12 (stereo not drawn)
- mutagenic call [2]: active; positive

Structure (SMILES): CN(N)c1ccn([C@@H]2O[C@H](CO)[C@@H](O)[C@H]2O)c(=O)n1
- mutagenic call (Test System: CHINESE HAMSTER V-79, Strain/Indicator: V-79/6-THIOGUANINE, Metabolic Activation: NONE, Method: REPLATING): inactive; negative

Structure (SMILES): CN(C)CCCNc1c2ccccc2nc2cccc([N+](=O)[O-])c12
- mutagenic call (Test System: AMES SALMONELLA TYPHIMURIUM, Strain/Indicator: TA98(1,8-DNP6), Metabolic Activation: NONE, Method: STANDARD PLATE): active; positive
- mutagenic call (Test System: AMES SALMONELLA TYPHIMURIUM, Strain/Indicator: TA98(1,8-DNP6), Metabolic Activation: RAT, LIVER, S-9, Method: STANDARD PLATE): active; positive
- mutagenic call (Test System: AMES SALMONELLA TYPHIMURIUM, Strain/Indicator: TA98(NR), Metabolic Activation: NONE, Method: STANDARD PLATE): active; positive
- mutagenic call (Test System: AMES SALMONELLA TYPHIMURIUM, Strain/Indicator: TA98(NR), Metabolic Activation: RAT, LIVER, S-9, Method: STANDARD PLATE): active; positive
- mutagenic call [4]: active; positive
- mutagenic call (Test System: AMES SALMONELLA TYPHIMURIUM, Strain/Indicator: TA98, Metabolic Activation: RAT, LIVER, S-9, Method: STANDARD PLATE): active; positive
- mutagenic call [5]: active; positive
- mutagenic call (Test System: AMES SALMONELLA TYPHIMURIUM, Strain/Indicator: TA1535, Metabolic Activation: NONE, Method: STANDARD PLATE): inactive; negative
- mutagenic call (Test System: AMES SALMONELLA TYPHIMURIUM, Strain/Indicator: TA1537, Metabolic Activation: NONE, Method: STANDARD PLATE): active; positive
- mutagenic call (Test System: AMES SALMONELLA TYPHIMURIUM, Strain/Indicator: TA1537 PKM101, Metabolic Activation: NONE, Method: STANDARD PLATE): active; positive
- mutagenic call (Test System: AMES SALMONELLA TYPHIMURIUM, Strain/Indicator: TA1538, Metabolic Activation: NONE, Method: STANDARD PLATE): active; positive
- mutagenic call (Test System: CHINESE HAMSTER V-79, Strain/Indicator: V-79/6-THIOGUANINE, Metabolic Activation: NONE, Method: STANDARD PLATE): active; positive
- mutagenic call (Test System: CHINESE HAMSTER V-79, Strain/Indicator: V-79/OUABAIN, Metabolic Activation: NONE, Method: STANDARD PLATE): active; positive
- mutagenic call (Test System: Escherichia coli, Strain/Indicator: CC107 (G6 to G7 frameshifts), Metabolic Activation: None, Method: Modified preincubation): active; positive
- mutagenic call (Test System: Escherichia coli, Strain/Indicator: CC108 (G6 to G5 frameshifts), Metabolic Activation: None): active; positive
- mutagenic call (Test System: Escherichia coli, Strain/Indicator: CC109 (CG5 to CG4 frameshifts), Metabolic Activation: None, Method: Modified preincubation): active; positive
- mutagenic call (Test System: Escherichia coli, Strain/Indicator: CC111 (A7 to A6 frameshifts), Metabolic Activation: None, Method: Modified preincubation): inactive; negative

Structure (SMILES): C1=Cc2c3ccccc3cc3cc4ccccc4c1c23
- mutagenic call [4]: active; positive
- mutagenic call (Test System: AMES SALMONELLA TYPHIMURIUM, Strain/Indicator: TA98, Metabolic Activation: RAT, LIVER, S-9, AROCLOR 1254 (0.127 OR 1.27 MG S-9 PROTEIN), Method: STANDARD PLATE): active; positive

Structure (SMILES): CCCCCCCCS(=O)C(C)Cc1ccc2c(c1)OCO2 (stereo not drawn)
- mutagenic call (End Point: IN VITRO CHROMOSOMAL ABERRATIONS, Test System: CHINESE HAMSTER OVARY CELLS, Metabolic Activation: NONE): inactive; negative
- mutagenic call (End Point: IN VITRO CHROMOSOMAL ABERRATIONS, Test System: CHINESE HAMSTER OVARY CELLS, Metabolic Activation: RAT, LIVER, S-9, AROCLOR 1254): inactive; negative

Structure (SMILES): BrCc1c2ccccc2cc2c1ccc1ccccc12
- mutagenic call [4]: active; positive
- mutagenic call [5]: active; positive
- mutagenic call (Test System: CHINESE HAMSTER V-79, Strain/Indicator: V-79/8-AZAGUANINE, Metabolic Activation: NONE, Method: STANDARD PLATE): active; positive
- mutagenic call (Test System: E. COLI, Strain/Indicator: WP2, Metabolic Activation: NONE, Method: FLUCTUATION): active; positive
- mutagenic call (Test System: E. COLI, Strain/Indicator: WP2 UVRA, Metabolic Activation: NONE, Method: FLUCTUATION): active; positive
- mutagenic call (Test System: UDS HUMAN CELLS, Strain/Indicator: THY INCORP (NON-S-PHASE), Metabolic Activation: NONE, Method: LIQUID SCINTILLATION COUNTING): active; positive
- mutagenic call (Test System: UDS HUMAN FIBROBLASTS, Strain/Indicator: THY INCORP (NON-S-PHASE), Metabolic Activation: NONE, Method: AUTORADIOGRAPHY): active; positive
- mutagenic call (Test System: UDS RODENT CELLS, Strain/Indicator: THY INCORP (NON-S-PHASE), Metabolic Activation: NONE, Method: LIQUID SCINTILLATION COUNTING): active; positive

Structure (SMILES): Oc1cc(O)c2cc(O)c(-c3cc(O)c(O)c(O)c3)[o+]c2c1
- mutagenic call [1]: inactive; negative
- mutagenic call (Test System: AMES SALMONELLA TYPHIMURIUM, Strain/Indicator: TA98, Metabolic Activation: RAT, LIVER, S-9, AROCLOR 1254, Method: PREINCUBATION): inactive; negative
- mutagenic call [2]: inactive; negative
- mutagenic call (Test System: AMES SALMONELLA TYPHIMURIUM, Strain/Indicator: TA100, Metabolic Activation: RAT, LIVER, S-9, AROCLOR 1254, Method: PREINCUBATION): inactive; negative
- mutagenic call [3]: inactive; negative
- mutagenic call (Test System: AMES SALMONELLA TYPHIMURIUM, Strain/Indicator: TA1535, Metabolic Activation: RAT, LIVER, S-9, AROCLOR 1254, Method: PREINCUBATION): inactive; negative
- mutagenic call (Test System: AMES SALMONELLA TYPHIMURIUM, Strain/Indicator: TA1537, Metabolic Activation: NONE, Method: PREINCUBATION): inactive; negative
- mutagenic call (Test System: AMES SALMONELLA TYPHIMURIUM, Strain/Indicator: TA1537, Metabolic Activation: RAT, LIVER, S-9, AROCLOR 1254, Method: PREINCUBATION): inactive; negative
- mutagenic call (Test System: AMES SALMONELLA TYPHIMURIUM, Strain/Indicator: TA1538, Metabolic Activation: NONE, Method: PREINCUBATION): inactive; negative
- mutagenic call (Test System: AMES SALMONELLA TYPHIMURIUM, Strain/Indicator: TA1538, Metabolic Activation: RAT, LIVER, S-9, AROCLOR 1254, Method: PREINCUBATION): inactive; negative
